Laboratory results from patent publication US20060127980A1, “Human excitatory amino acid transporter-2 gene promoter and uses thereof” (priority 2003, published 2006).

Key:
hEAAT2 protein = experiment: Western blot of EAAT2 protein in PHFA; assay type: cell-based, human
Procedure: FIG. 5A-E. Effect of pharmacological inhibitors on hEAAT2 promoter activity, and mRNA and protein expression in PHFA following various treatment protocols. A. hEAAT2 promoter activity in PHFA, either untreated (−) or treated with EGF (30 ng/ml), in the absence (−) or presence (+) of KT5720 (5 μM), AG1478 (1 μM), PDTC (100 μM), wortmannin (WRT) (100 nM) or PD98049 (PD) (50 μM). B. hEAAT2 promoter activity in PHFA, either untreated (−) or treated with bromo-cAMP (250 μM) in the absence (−) or presence (+) of KT5720 (5 μM), AG1478 (1 μM), PDTC (100 μM), wortmannin (WRT) (100 nM) or PD98049 (PD) (50 μM). C. hEAAT2 promoter activity in PHFA, either untreated (−) or treated with TNF-α (200 U/ml), in the absence (−) or presence (+) of KT5720 (5 μM), AG1478 (1 μM), PDTC (100 μM), wortmannin (WRT) (100 nM) or PD98049 (PD) (50 μM). D. The effect of the various treatment protocols on hEAAT2 and GAPDH mRNA levels. Upper panel presents relative hEAAT2 RNA expression versus GAPDH expression relative to control untreated or treated samples based on scanning of autoradiograms. Lower panel, actual Northern blots. E. The effect of the various treatment protocols on EAAT2 and ACTIN protein levels. Upper panel presents relative EAAT2 protein expression versus ACTIN expression relative to control untreated or treated samples based on scanning of autoradiograms. Individual experiments were performed 3 times using triplicate samples and S.D. from the mean is presented.
Northern and Western Blotting Assays. Total cellular RNA was isolated by the guanidinium/phenol extraction method and Northern blotting was performed as described (Huang et al., 2001, Oncogene 20(48):7051-7063; Su et al., 2000, Oncogene 19(30):3411-3421; Su et al., 2001, Nucleic Acids Res 29(8):1661-1671). Western blotting assays were performed as described (Su et al., 1998, Proc Natl Acad Sci USA 95(24):14400-14405; Su et al., 2002, Oncogene 21(22):3592-602).

hEAAT2 promoter = hEAAT2 promoter luciferase assay of agents in PHFA-Im (FIG. 11); assay type: cell-based, human; conditions: 10 μM
Procedure: (§1) FIG. 11. Effect of various agents on hEAAT2 promoter activity in immortalized primary human fetal astrocytes (PHFA-Im). A: ceftriaxone; B: amoxicillin; C: chloramphenicol; D: thiamphenicol; E: vancomycin; F: glycine; G: glutamate; H: DMSO; I: dibutyryl cAMP. PHFA-Im is a human telomerase-immortalized clone of primary human fetal astrocytes. PHFA-Im cells were seeded at 5×10^4 cells/35-mm plate. Twenty-four h later cells were untreated (CON) or received the indicated compound at a final concentration of 10 μM. Forty-eight h later the cells were transfected with a FL pGL3/EAAT2 luciferase reporter construct (5 μg) plus a pSVβGalactosidase construct (1 μg) using the calcium phosphate precipitation method (Su et al. 2003, Proc. Natl. Acad. Sci. USA 100:1955-1960). After an additional 48 h, cell lysates were prepared and luciferase activity was determined using the Luciferase Assay System Kit (Promega, E1501) and luminescence determined using a luminometer (Turner Designs, TD20/20) (Su et al. 2003, Proc. Natl. Acad. Sci. USA 100:1955-1960). Data presented are the average of 3 independent plates±S.D. Qualitatively similar results were obtained in 2 additional experiments.
as §1, with “The effects” for “FIG. 11. Effect”, “these same” for “various”, “also were examined” for “on hEAAT2 promoter activity”, “two other cell lines to confirm the generality of the findings. […] PHFA-Im is a cell line developed from a clonal isolate of a” for “immortalized”, “astrocyte immortalized by transformation with the reverse transcriptase subunit of” for “astrocytes (PHFA-Im). A: ceftriaxone; B: amoxicillin; C: chloramphenicol; D: thiamphenicol; E: vancomycin; F: glycine; G: glutamate; H: DMSO; I: dibutyryl cAMP. PHFA-Im is a”, “telomerase.” for “telomerase-immortalized clone of primary human fetal astrocytes.”

SMILES: CCCC(=O)Nc1ncnc2c1ncn2[C@@H]1O[C@@H]2COP(=O)(O)O[C@H]2[C@H]1OC(=O)CCC [dbcAMP, dibutyryl cyclic AMP]
- hEAAT2 protein levels (hEAAT2 protein): upregulated
- hEAAT2 promoter activity (hEAAT2 promoter): potent stimulators
